Columns and labels:
[1] = cited from earlier work
[2] = Chemical stability of Edaravone (hydrolysis, oxidation); assay type: physicochemical; settings: aqueous solution, compared to the powdered form
Excerpt: It may be noted that the efficacy of Edaravone has seen an undisputed success since its inception in the therapeutic category of stroke management. Edaravone per se has wide applicability and has potential to be used for more therapeutic indications. The injectable dosage form has been a limiting factor in case of increased use of this product. Importantly, developing an oral dosage form of Edaravone is a challenging process due to its less soluble and less permeable (BCS Class-IV product) nature. Further, an injectable dosage form has inherent difficulty in terms of its usage post hospitalization. […] The inventors of the present invention during development have noted that it was difficult to stabilize Edaravone.

[3] = cited from earlier work; remark: listed apart in the source

In the case of `CC1=NN(c2ccccc2)C(=O)C1` [Edaravone, 3-methyl-1-phenyl-2-pyrazolin-5-one], the Lipid permeability [1] is listed as “lower lipid permeability”, the “Bio-pharmaceutics Classification System (BCS) class” value ([1]; poor solubility in water and lower lipid permeability) is listed as “Class IV” and the Decomposition by oxidation [2] is listed as “easily decompose by oxidation”. The “Solubility in acetic acid” value ([3]; acetic acid) was “freely soluble”, the “Solubility in diethyl ether” value ([3]; diethyl ether) was “slightly soluble” and the Solubility in ethanol ([3]; ethanol) was “freely soluble”. The Solubility in methanol ([3]; methanol) was “freely soluble” and the Solubility in water ([3]; water) was “slightly soluble”.

Source: patent US20260325490A1, “ORAL FORMULATIONS OF EDARAVONE AND IMPROVED METHOD OF MANUFACTURING THEREOF” (BDR PHARMACEUTICALS INTERNATIONAL PRIVATE LIMITED, priority 2022, published 2026)
